From patent US8865623B2, “Herbicidally active cyclic diones and derivatives thereof, processes for their preparation, compositions, and method of controlling weeds” (Syngenta Limited, priority 2009, dated 2014) come the findings set out here.

Assay type in all cases: in vivo
The subject of test [1] is Lolium perenne (LOLPE). Briefly: Post-emergence herbicidal activity, glasshouse pot test. The following applies: Lolium perenne, 312 h, rate 250 g/ha, evaluated after 13 days, read-out: Post-emergence activity LOLPE (100=total damage to plant; 0=no damage to plant). Put shortly: (§1)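 Herbicide damage scored 0–100 at 13 d. Pre-emergence: spray 1 d after sowing; post-emergence: spray after 8 d growth. Formulation acetone/water 50:50, 0.5% Tween 20, aqueous spray.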

Test [2] deals with Alopecurus myosuroides (ALOMY). The test is described as above. The following applies: Alopecurus myosuroides, 312 h, rate 250 g/ha, evaluated after 13 days, read-out: Post-emergence activity ALOMY (100=total damage to plant; 0=no damage to plant). Put shortly:
as §1

For test [3], the system named is Echinochloa crus-galli (ECHCG). The test is described as above. To be noted: Echinochloa crus-galli, 312 h, rate 250 g/ha, evaluated after 13 days, read-out: Post-emergence activity ECHCG (100=total damage to plant; 0=no damage to plant). Put shortly: as §1
The test system of test [4] is Avena fatua (AVEFA). The test is described as above. To be noted: Avena fatua, 312 h, rate 250 g/ha, evaluated after 13 days, read-out: Post-emergence activity AVEFA (100=total damage to plant; 0=no damage to plant). Put shortly:
as §1

Test [5] concerns Lolium perenne (LOLPE). Nature of the test: Pre-emergence herbicidal activity, glasshouse pot test. The following applies: Lolium perenne, 312 h, Rate 250 g/ha, evaluated after 13 days, read-out: Pre-emergence activity LOLPE (100=total damage to plant; 0=no damage to plant). Summed up: as §1
The subject of test [6] is Alopecurus myosuroides (ALOMY). The test is described as above. The following applies: Alopecurus myosuroides, 312 h, Rate 250 g/ha, evaluated after 13 days, read-out: Pre-emergence activity ALOMY (100=total damage to plant; 0=no damage to plant). Put shortly: as §1
For test [7], the system named is Echinochloa crus-galli (ECHCG). The test is described as above. To be noted: Echinochloa crus-galli, 312 h, Rate 250 g/ha, evaluated after 13 days, read-out: Pre-emergence activity ECHCG (100=total damage to plant; 0=no damage to plant). Put shortly:
as §1

The subject of test [8] is Avena fatua (AVEFA). The description is as above. To be noted: Avena fatua, 312 h, Rate 250 g/ha, evaluated after 13 days, read-out: Pre-emergence activity AVEFA (100=total damage to plant; 0=no damage to plant). Summed up:
as §1

Consider `CCc1ccc(Oc2ccc([N+](=O)[O-])c(C#N)c2)cc1C1=C(O)C(C)(C)OC(C)(C)C1=O` [Example A-196], for which the pest or weed control at 250 g/ha in test [1] (glasshouse) was 10%; in test [2] (glasshouse), 0%; in test [3] (glasshouse) it was 20%; in test [4] (glasshouse) it was 0%; in test [5] (pre-emergence spray), 0%; in test [6] (pre-emergence spray), 0%. The pest or weed control at 250 g/ha in test [7] (pre-emergence spray) and in test [8] (pre-emergence spray) was 0% throughout.
With `CCc1ccc(Oc2ccc(F)c(Cl)c2)cc1C1=C(O)[C@H]2CC[C@H](C2)C1=O` [Example A-246], the pest or weed control at 250 g/ha in test [1] (glasshouse) stood at 20%; in test [2] (glasshouse) it was 50%; in test [3] (glasshouse), 100%; in test [4] (glasshouse) it was 60%; in test [5] (pre-emergence spray), 60%; in test [6] (pre-emergence spray) it was 70%. Besides, the pest or weed control at 250 g/ha stood at 100% in test [7] (pre-emergence spray) and 50% in test [8] (pre-emergence spray).
`CC1(C)OC(C)(C)C(O)=C(c2cc(Oc3ccc(Cl)c(F)c3)ccc2C2CC2)C1=O` [Example A-347]: the pest or weed control at 250 g/ha in test [1] stood at 100%; in test [2], 90%; in test [3] it was 100%; in test [4], 50%; in test [5] (pre-emergence), 100%; in test [6] (pre-emergence), 70%. The pest or weed control at 250 g/ha was 100% in test [7] (pre-emergence) and 10% in test [8] (pre-emergence).
Turning to `CCc1ccc(Oc2cc(C(F)(F)F)cc(Cl)n2)cc1C1=C(O)C(C)(C)OC(C)(C)C1=O` [Example A-146], the pest or weed control at 250 g/ha was 20% in test [1] (glasshouse); 30% in test [2] (glasshouse); 70% in test [3] (glasshouse); 30% in test [4] (glasshouse); 0% in test [5] (pre-emergence spray); 10% in test [6] (pre-emergence spray). For the same compound, the pest or weed control at 250 g/ha is 10% in test [7] (pre-emergence spray) and 0% in test [8] (pre-emergence spray).
`CCc1ccc(Oc2nc3ccc(OC)cc3s2)cc1C1=C(O)CC2(CCOCC2)CC1=O` [Example A-264]: the pest or weed control at 250 g/ha in test [1] (glasshouse) came to 100%; in test [2] (glasshouse), 90%; in test [3] (glasshouse), 100%; in test [4] (glasshouse), 90%; in test [5] (pre-emergence spray) it was 90%; in test [6] (pre-emergence spray) it was 90%. In addition, the pest or weed control at 250 g/ha in test [7] (pre-emergence spray) is 100%; in test [8] (pre-emergence spray), 80%.
`CCc1ccc(Oc2ncc(Cl)cc2F)cc1C1=C(O)C(C)(C)OC(C)(C)C1=O` [Example A-54]: the pest or weed control at 250 g/ha in test [1] (glasshouse), in test [2] (glasshouse), in test [3] (glasshouse), in test [4] (glasshouse), in test [5] (pre-emergence spray) and in test [6] (pre-emergence spray) was 100% in each case. Moreover, the pest or weed control at 250 g/ha is 100% in test [7] (pre-emergence spray) and 90% in test [8] (pre-emergence spray).
With `CCc1ccc(Oc2ncc(C(F)(F)F)cc2C(F)(F)F)cc1C1=C(O)[C@H]2CC[C@H](C2)C1=O` [Example A-341], the pest or weed control at 250 g/ha in test [1] (glasshouse) amounted to 100%; in test [2] (glasshouse) it was 90%; in test [3] (glasshouse) it was 100%; in test [4] (glasshouse) it was 100%; in test [5] (pre-emergence spray), 100%; in test [6] (pre-emergence spray), 100%. The pest or weed control at 250 g/ha is 100% in test [7] (pre-emergence spray) and 90% in test [8] (pre-emergence spray).
Consider `CCc1ccc(Oc2cnc3ccc(Br)cc3n2)cc1C1=C(O)CC2(CCOCC2)CC1=O` [Example A-305], for which the pest or weed control at 250 g/ha was 100% in test [1] (glasshouse); 100% in test [2] (glasshouse); 100% in test [3] (glasshouse); 100% in test [4] (glasshouse); 90% in test [5] (pre-emergence spray); 80% in test [6] (pre-emergence spray). The pest or weed control at 250 g/ha in test [7] (pre-emergence spray) came to 100%; in test [8] (pre-emergence spray), 60%.
